From patent US20150232954A1, “Method for quantifying different viral forms of the DNA of the HIV virus” (UNIVERSITE PARIS DIDEROT - PARIS 7, priority 2012, published 2015)

Legend:
viral integration = assay: Inhibition of viral integration by INSTI (Example 4); type: cell-based, HIV-1; conditions: for IC50: Human immunodeficiency virus 1, read-out: IC50 for inhibition of viral integration
[1] = system: maturation reaction (3′-processing); assay: Effect of INSTI on the maturation reaction (3′-processing) in infected cells (Example 4); type: cell-based, HIV-1; conditions: for effect on the maturation step: 500 nM inhibitor; for maturation efficacy: 2.5 μM inhibitor
From the text: Quantification of 3′ non-mature and mature linear forms of the DNA of HIV-1 by LM-PCR. The strategy used in order to quantify the linear viral DNA is based on the ligation of a linking oligonucleotide (or “linker”) at the ends of the viral ends followed by two PCRs according to the protocol of Pierson et al. (Pierson et al. (2002) Journal of Virology 17:8518-8531). Major improvements have been made in order to implement an approach of quantitative PCR type.

recombinant integrase = target: T1, recombinant integrase (Human immunodeficiency virus type 1 group M subtype B, UniProt P12497); assay: In vitro maturation reaction with recombinant integrase; type: biochemical, HIV-1
T1 construct: with the aid of recombinant integrase

maturation reaction = assay: Confirmation of the effect on maturation with a radiolabeled probe derived from the PCR; type: cell-based, HIV-1; conditions: 5 μM inhibitor
From the text: The different effects of each of the inhibitors on the maturation reaction were confirmed with the aid of a radiolabeled probe derived from the PCR.

[2] = system: 2-LTR or 1-LTR bands of HIV-1 viral DNA; assay: Accumulation of 2-LTR and 1-LTR bands with INSTI (Example 4); type: cell-based; conditions: for 2 LTR bands as share of the viral forms: 500 nM to 5 μM, 48 h post-infection; for accumulation of 2-LTR or 1-LTR bands on varying the concentration: from 500 nM to 5 μM
Description: Quantification of the 1-LTR bands. The quantifications were carried out by real-time PCR on a Light Cycler apparatus (Roche Diagnostics, Meylan, France) with the aid of the second derivative method provided with the Light Cycler quantification software, version 3.5 (Roche Diagnostics). The number of DNA copies of the 1-LTR bands was determined by quantifying the viral molecules with the aid of primers which hybridize to the genes gag and env, as well as to hybridization probes. The reaction mixtures contain 1× LightCycler FastStart DNA master HybProbes buffer (Roche Diagnostics reference 12239272001), 4 mM MgCl2, 300 nM of 1-LTR LA1 primers (5′-[…]-3′, SEQ ID NO: 1) and 1-LTR LA16 (5′-[…]-3′, SEQ ID NO: 2) and 200 nM of LTR FL* hybridization probes (5′-[…]^a-3′, SEQ ID NO: 3) and LTR LC*(5′-[…]^b-3′, SEQ ID NO: 4) (^aFluorescein at the 3′ end; ^bLC red 640 at the 5′ end and phosphorylated at the 3′ end) in a final volume of 20 μl. The conditions of the PCR cycles for the quantification of the 1-LTR bands are the following: denaturation step for 8 min followed by 40 cycles (95° C. for 10 s, 60° C. for 10 s, and 72° C. for 25 s). The number of copies of 1-LTR bands was determined by reference to a calibration curve prepared by amplifying quantities ranging from 100 to 10^5 copies of p1-LTR.
(§1) The bands at 2-LTR are amplified by the primers flanking the LTR-LTR junction (HIVF and HIVR1 primers) (Brussel & Sonigo (2003) Journal of Virology 77:10119-10124). The viral DNA integrated is quantified by Alu-PCR (Brussel & Sonigo (2003) Journal of Virology 77:10119-10124). The U5-gag sequences, the 2-LTR junctions as well as the specific amplification of the integrated DNA are amplified in duplicate starting from 1/50 of the extraction of cell DNA. The number of copies is normalized per μg of DNA by measuring the quantity of β-globin gene in 1/50 of the DNA extract (Table 1).

[3] = system: maturation reaction in primary CD4+ T lymphocytes infected with Δenv virus of wild-type; assay: Efficacy of maturation during infection of primary CD4+ T lymphocytes; type: cell-based, HIV-1; conditions: 5 μM inhibitor
From the text: In addition, the accumulation kinetics of the 1-LTR and 2-LTR bands are similar in the primary cells with respect to cells of cellular line.

[4] = system: maturation (3′-processing) of the linear viral DNA of HIV-1 in CEM cells; assay: Quantification of mature and non-mature linear viral DNA by LM-PCR after infection of CEM cells; type: cell-based
[5] = system: integration of HIV-1 viral DNA in infected cells; assay: Quantification of integrated viral DNA by Alu-PCR in infected cells; type: cell-based; conditions: WT virus, 500 nM raltegravir, FIG. 3D
From the text: as §1

| SMILES | lowest concentration completely inhibiting viral integration (viral integration) [nM] | IC50 (viral integration) [nM] | effect on the maturation step [1] | maturation efficacy [1] | IC50 (recombinant integrase) [nM] | effect on maturation (maturation reaction) | 2 LTR bands as share of the viral forms [2] [%] | accumulation of 2-LTR or 1-LTR bands on varying the concentration [2] | efficacy of the maturation reaction influenced or not [3] | percentage of mature viral DNA ([4]; wild-type integrase virus, 20 μM FZ41 at the time of infection, 20 hours post-infection (75% without compound)) [%] | quantity of linear viral DNA (mature and non-mature), compared with WT ([4]; 500 nM raltegravir, achieved 8 hours post-infection) | quantity of mature viral DNA with or without raltegravir ([4]; WT virus, 500 nM raltegravir) | detection of integrated viral DNA [5] | maturation activity / maturation efficacy ([1]; 5 μM inhibitor) [%] |
| --- | --- | --- | --- | --- | --- | --- | --- | --- | --- | --- | --- | --- | --- | --- |
| C[C@@H]1CCO[C@H]2Cn3cc(C(=O)NCc4ccc(F)cc4F)c(=O)c(O)c3C(=O)N12 [DTG, dolutegravir] | 500 | 2 | not affected | approximately 40% | 2000 | significantly inhibit maturation | ~40 | does not lead to an increase | influenced | – | – | – | – | – |
| COc1cc2c(cc1Cc1cccc(Cl)c1F)c(=O)c(C(=O)O)cn2[C@H](CO)C(C)C [EVG, elvitegravir] | 500 | 2 | not affected | approximately 40% | – | significantly inhibit maturation | ~40 | does not lead to an increase | influenced | – | – | – | – | – |
| COc1cc(/C=C/c2ccc3ccc(C(=O)O)c(O)c3n2)cc(O)c1O [FZ41] | – | – | – | – | – | – | – | – | – | 28 | – | – | – | – |
| Cc1nnc(C(=O)NC(C)(C)c2nc(C(=O)NCc3ccc(F)cc3)c(O)c(=O)n2C)o1 [RAL, raltegravir] | 500 | 8 | not affected | – | – | – | – | – | not | – | the same | similar | inhibition of the detection of integrated viral DNA | 80 |
